Patent US12644133B2, “Methods and compositions to increase somatic cell nuclear transfer (SCNT) efficiency by removing histone H3-lysine trimethylation” (The Children's Medical Center Corporation, priority 2014, dated 2026)
Values joined by “and” are separate entries in the source; they are usually repeats but may differ in a detail not shown here. Identical values can stand only once.

Experiments:
SetDB1 H3K9me3 HMTase = details: cited from earlier work
SCNT embryos = experiment: Preimplantation development of SCNT embryos cultured in vitro; format: cell-based, mouse; details: cumulus donor cells (BDF1, female), TSA treatment 15 nM for 8 h, water or mRNA 1800 ng/μl injected
Text: C57BL/6J female mice were mated with DBA/2J males to produce B6D2F1/J (BDF1) mice. BDF1 and CD-1 (ICR) adult females were used for the collection of recipient oocytes and embryo transfer recipients, respectively. BDF1 mice were used for the collection of donor somatic cells for the analyses of development. (C57BL/6×CAST/EiJ) F1 mice were used for the collection of donor cells for RNA-seq. E13.5 embryos harboring GOF18 delta-PE (Jackson Laboratory, 004654: Tg(Pou5f1-EGFP)2Mnn, C57BL/6J background) were used for the isolation of mouse embryonic fibroblasts (MEF). All animal experiments were approved by the Institutional Animal Care and Use Committee of Harvard Medical School.
Cumulus cells were collected from adult BDF1 females through superovulation by injecting 7.5 IU of pregnant mare serum gonadotropin (PMSG; Harbor) and 7.5 IU of human chorionic gonadotropin (hCG; Millipore). Fifteen hours after the hCG injection, cumulus-oocyte complexes (COCs) were collected from the oviducts and briefly treated with Hepes-buffered potassium simplex-optimized medium (KSOM) containing 300 U/ml bovine testicular hyaluronidase (Calbiochem #385931) to obtain dissociated cumulus cells. Sertoli cells were collected from testes of 3- to 5-day-old BDF1 male mice as described (Matoba et al., 2011). Testicular masses were incubated in PBS containing 0.1 mg/ml collagenase (Life Technologies #17104-019) for 30 min at 37° C. followed by 5 min treatment with 0.25% Trypsine with 1 mM EDTA (Life Technologies #25200-056) at room temperature. After washing for four times with PBS containing 3 mg/ml bovine serum albumin, the dissociated cells were suspended in Hepes-KSOM medium.
Primary mouse embryonic fibroblast (MEF) cells were established from GOF18 delta-PE mouse embryos at 13.5 dpc. After removal of head and all organs, minced tissue from remaining corpus was dissociated in 500 μl of 0.25% Trypsine with 1 mM EDTA for 10 min at 37° C. Cell suspension was diluted with equal amount of DMEM (Life Technologies #11995-073) containing 10% FBS and Penicillin/Streptomycin (Life Technologies #15140-022) and pipetted up and down for 20 times. The cell suspension was diluted with fresh medium and plated onto 100 mm dishes and cultured at 37° C. Two days later, MEF cells were harvested and frozen. Frozen stocks of MEF cells were thawed and used for experiments after one passage.
siRNAs against mouse Suv39h1 (Life Technologies #s74607), Suv39h2 (Life Technologies #s82300) and Setdb1 (Life Technologies #s96549) were diluted in nuclease free water at 50 μM stock solutions. siRNAs were introduced to MEFs with Lipofectamine RNAi Max (Life technologies #35050-061) following manufacturer's protocol. Briefly, 1×10^5 MEF cells were seeded onto 24-well plate (day 0; see FIG. 5A). Twenty-four hours later, […] siRNAs were transfected into MEF cells using Lipofectamine RNAi Max (day 1). Twenty-four hours after the first transfection, the culture media was changed to fresh M293T media [DMEM supplemented with 10% FBS, 0.1 mM non-essential amino acids (Life technologies #11140-050), 2 mM GlutaMAX (Life technologies #35050-079), 50 U/ml penicillin-streptomycin and 0.1 mM 2-mercaptoethanol (Life technologies #21985-023)] (day 2). On day 3, MEF cells were reseeded onto 24-well plates at the density of 1×10^5 cells. Then transfection was repeated once as described above (day 4). Forty-eight hours after the second transfection (day 6), MEF cells were used for immunostaining, RT-qPCR or SCNT.
Somatic cell nuclear transfer was carried out as described previously (Matoba et al., 2011). Briefly, recipient MII oocytes were collected from superovulated adult BDF1 females by brief treatment with 300 U/ml bovine testicular hyaluronidase (Calbiochem). Isolated MII oocytes were enucleated in Hepes-buffered KSOM medium containing 7.5 μg/ml of cytochalasin B (Calbiochem #250233). […]

SCNT blastocysts = experiment: ntESC derivation from SCNT blastocysts; format: cell-based, mouse
Procedure: Blastocysts were denuded by acid tyrode treatment and cultured on mitomycin treated MEF feeder cells and in DMEM supplemented with 5% FBS, 10% KnockOut serum replacement (Life Technologies #10828-028), 0.1 mM non-essential amino acids, 2 mM GlutaMAX, 50 U/ml penicillin-streptomycin, 0.1 mM 2-mercaptoethanol and 2000 U leukemia inhibitory factor (LIF, Millipore #ESG1107) at 37° C. 5% CO2. Four to five days later, outgrowths from attached embryos were dissociated with 0.25% trypsin and passaged all onto new feeder cells. On the following day, the medium was replaced with N2B27-LIF media [DMEM/F12 (Life Technologies #10565-042) supplemented with 0.1 mM non-essential amino acids, 2 mM GlutaMAX, 50 U/ml penicillin-streptomycin, 0.1 mM 2-mercaptoethanol, 0.5×N2 supplement (Life technologies #17502-048), 0.5× B27 supplement (Life technologies #17504-044), […] CHIR99021 (STEMGENT #04-0004), 0.5 μM PD0325901 (STEMGENT #04-0006) and 1000 U LIF]. Five days later, expanded cells were reseeded as established ntESC.

Suv39h2 = Suv39h2 (Homo sapiens, UniProt Q9H5I1); details: cited from earlier work
Chain of Suv39h2 (Q9H5I1 whole entry, species assumed): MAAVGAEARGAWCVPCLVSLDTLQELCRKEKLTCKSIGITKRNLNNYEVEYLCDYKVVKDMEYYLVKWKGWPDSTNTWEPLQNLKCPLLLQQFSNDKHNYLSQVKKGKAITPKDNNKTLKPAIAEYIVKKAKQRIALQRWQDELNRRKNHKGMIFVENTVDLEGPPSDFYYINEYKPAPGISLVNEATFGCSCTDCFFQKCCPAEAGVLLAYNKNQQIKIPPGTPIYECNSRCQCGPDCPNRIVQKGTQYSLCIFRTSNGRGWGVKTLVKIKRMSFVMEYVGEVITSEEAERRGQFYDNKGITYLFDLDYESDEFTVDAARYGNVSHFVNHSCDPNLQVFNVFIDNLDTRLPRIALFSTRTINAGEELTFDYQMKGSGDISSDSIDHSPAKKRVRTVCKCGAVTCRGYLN

[1] = cumulus donor cells (BDF1, female), TSA treatment 15 nM for 8 h, water or mRNA 1800 ng/μl injected

Nc1nccc2c1ncn2[C@@H]1C=C(CO)[C@@H](O)[C@H]1O [DZNep, 3-Deazaneplanocin A]
levels of H3K27me3 and H3K9me3 (in words) (SetDB1 H3K9me3 HMTase): reduced levels of both H3K27me3 and H3K9me3

CC(/C=C/C(=O)NO)=C\[C@@H](C)C(=O)c1ccc(N(C)C)cc1 [TSA, trichostatin A, reference compound]
% 4-cell per 2-cell ± SD (SCNT embryos): 72.1 ± 10.9 %
% blast per 2-cell ± SD (SCNT embryos): 53.8% and 53.8 ± 6.2 %
% cleaved per 1-cell ± SD (SCNT embryos): 98.0 ± 3.4%
% morula per 2-cell ± SD (SCNT embryos): 60.8 ± 6.8 %
No. of blastocyst (SCNT embryos; ntESC derivation experiment): 20
blastocyst (% per 1-cell) (SCNT embryos; ntESC derivation experiment): 51.3%
efficiency of attachment or ntESC derivation per blastocyst, compared to control (in words) (SCNT blastocysts; SCNT blastocysts from cumulus donor cells): did not show any significant difference
No. of blastocyst attached to feeder cells (SCNT blastocysts; [1]): 14
No. of established ntESC lines (SCNT blastocysts; [1]): 8
blastocyst attached to feeder cells (% per blast) (SCNT blastocysts; [1]): 70.0%
established ntESC lines (% per MII oocyte) (SCNT blastocysts; [1]): (18.2) %
established ntESC lines (% per blast) (SCNT blastocysts; [1]): (40.0) %

COc1cc2c(NC3CCN(C(C)C)CC3)nc(C3CCCCC3)nc2cc1OCCCN1CCCC1 [UNC0638, 2-Cyclohexyl-N-(1-isopropylpiperidin-4-yl)-6-methoxy-7-(3-(pyrrolidin-1-yl)propoxy)quinazolin-4-amine]
IC50 (Suv39h2): > 10 µM
